Data taken from ChEMBL document CHEMBL1155206, “Synthesis and in vitro evaluation of 2,4-diamino-1,3,5-triazine derivatives as neuronal voltage-gated sodium channel blockers” (Bioorg Med Chem Lett, 2009).

Molecular target: not listed separately
Test: Displacement of [3H]BTX-B from neurotoxin site 2 of voltage gated sodium channel in rat cerebral cortex synaptoneurosomes after 30 mins by scintillation counting
Format: tissue-based

`CC1(C)N=C(N)N=C(N)N1Cc1ccc(Cl)cc1` and `Cc1ccc(CN2C(N)=NC(N)=NC2(C)C)cc1` are within 1.5-fold of each other in IC50: 35.3 µM for the first, 32.2 µM for the second.

Going from `COc1cccc(NC2=NC(N)=NC(C)(C)N2)c1` to `Cc1cccc(NC2=NC(N)=NC(C)(C)N2)c1`, the IC50 rises from 76.2 µM to 186 µM (2.4-fold).

`NC1=NC2(CCCCC2)N(c2ccc(Cl)cc2)C(N)=N1` and `Cc1ccc(N2C(N)=NC(N)=NC23CCCCC3)cc1` are within 1.5-fold of each other in IC50: 4.4 µM for the first, 4.2 µM for the second.

`CC1(C)N=C(N)NC(Nc2ccc(Br)cc2)=N1` and `CC1(C)N=C(N)N=C(Nc2ccc(Cl)cc2)N1` are within 1.5-fold of each other in IC50: 18.4 µM for the first, 24.7 µM for the second.

`NC1=NC2(CCCCC2)N(c2ccccc2Cl)C(N)=N1` and `Cc1ccccc1N1C(N)=NC(N)=NC12CCCCC2` are within 1.5-fold of each other in IC50: 13 µM for the first, 9.1 µM for the second.

`Cc1cccc(N2C(N)=NC(N)=NC23CCCCC3)c1` and `NC1=NC2(CCCCC2)N(c2cccc(Cl)c2)C(N)=N1` are within 1.5-fold of each other in IC50: 4.7 µM for the first, 4 µM for the second.

`Cc1nc(N)nc(Nc2cccc(Cl)c2)n1` and `Cc1nc(N)nc(Nc2cccc(Br)c2)n1` are within 1.5-fold of each other in IC50: 246 µM for the first, 198 µM for the second.

`Nc1nc(CCl)nc(Nc2cccc(Br)c2)n1` and `Nc1nc(CCl)nc(Nc2cccc([N+](=O)[O-])c2)n1` are within 1.5-fold of each other in IC50: 172 µM for the first, 190 µM for the second.

First: COc1ccc(N2C(N)=NC(N)=NC23CCCCC3)cc1
Second: COc1cccc(N2C(N)=NC(N)=NC23CCCCC3)c1
The IC50 of the first is 1.5-fold higher: 7.8 µM for the first, 5.1 µM for the second. The second is the more potent here.

`CC1(C)N=C(N)N=C(Nc2cccc(Br)c2)N1` and `CC1(C)N=C(N)N=C(Nc2cccc(Cl)c2)N1` are within 1.5-fold of each other in IC50: 12.6 µM for the first, 16.5 µM for the second.

Compared with `CC1(C)N=C(N)N=C(Nc2ccccc2)N1`, `CC1(C)N=C(N)N=C(Nc2ccccc2Br)N1` is 4.5-fold lower in IC50: 259 µM for the first, 57.5 µM for the second.

`O=C1NC(=O)C(c2ccccc2)(c2ccccc2)N1` [PHENYTOIN] and `CC1(C)N=C(N)N=C(Nc2ccccc2Cl)N1` are within 1.5-fold of each other in IC50: 126 µM for the first, 85.5 µM for the second.

Going from `COc1ccccc1NC1=NC(N)=NC(C)(C)N1` to `Cc1ccccc1NC1=NC(N)=NC(C)(C)N1`, the IC50 rises from 343 µM to 582 µM (1.7-fold). The first is the more potent here.

Going from `CC1(C)N=C(N)N=C(N)N1Cc1ccc(Cl)c(Cl)c1` to `COc1ccc(CN2C(N)=NC(N)=NC2(C)C)cc1`, the IC50 rises from 19 µM to 59.8 µM (3.1-fold). The first is the more potent here.

Going from `Nc1nc(CCl)nc(Nc2ccc(Cl)c(Cl)c2)n1` to `Cc1nc(N)nc(Nc2ccc(Cl)c(Cl)c2)n1`, the IC50 rises from 168 µM to 274 µM (1.6-fold). The first is the more potent here.

First: CC1(C)N=C(N)N=C(N)N1Cc1ccccc1
Second: NC1=NC2(CCCCC2)N(c2ccccc2)C(N)=N1
The IC50 of the first is 3.6-fold higher: 53.2 µM for the first, 14.7 µM for the second. The second is the more potent here.

First: COc1ccc(NC2=NC(N)=NC(C)(C)N2)cc1
Second: Cc1ccc(NC2=NC(N)=NC(C)(C)N2)cc1
The IC50 of the first is 2.9-fold higher: 207 µM for the first, 71.5 µM for the second.

`COc1ccccc1N1C(N)=NC(N)=NC12CCCCC2` gave an IC50 of 12.3 µM.

Molecular target: T1, Dihydrofolate reductase (Bos taurus, UniProt P00376)
T1 sequence (P00376 whole entry): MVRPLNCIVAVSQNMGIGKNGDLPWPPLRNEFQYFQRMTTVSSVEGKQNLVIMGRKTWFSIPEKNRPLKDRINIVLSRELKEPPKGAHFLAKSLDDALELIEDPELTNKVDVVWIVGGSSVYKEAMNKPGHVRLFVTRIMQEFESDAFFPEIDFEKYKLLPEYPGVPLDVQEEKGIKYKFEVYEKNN
Test: Inhibition of bovine liver DHFR assessed as NADPH consumption during conversion of dihydrofolic acid to tetrahydrofolic acid

`CC1(C)N=C(N)N=C(N)N1Cc1ccc(Cl)cc1` and `Cc1ccc(CN2C(N)=NC(N)=NC2(C)C)cc1` are within 1.5-fold of each other in IC50: 29.9 µM for the first, 24.6 µM for the second.

`COc1cccc(NC2=NC(N)=NC(C)(C)N2)c1` and `Cc1cccc(NC2=NC(N)=NC(C)(C)N2)c1` cannot be ordered by IC50: > 100 µM for the first, > 100 µM for the second.

`NC1=NC2(CCCCC2)N(c2ccc(Cl)cc2)C(N)=N1` and `Cc1ccc(N2C(N)=NC(N)=NC23CCCCC3)cc1` cannot be ordered by IC50: > 100 µM for the first, > 100 µM for the second.

`CC1(C)N=C(N)NC(Nc2ccc(Br)cc2)=N1` and `CC1(C)N=C(N)N=C(Nc2ccc(Cl)cc2)N1` cannot be ordered by IC50: > 100 µM for the first, > 100 µM for the second.

`NC1=NC2(CCCCC2)N(c2ccccc2Cl)C(N)=N1` and `Cc1ccccc1N1C(N)=NC(N)=NC12CCCCC2` cannot be ordered by IC50: > 100 µM for the first, > 100 µM for the second.

`Cc1cccc(N2C(N)=NC(N)=NC23CCCCC3)c1` and `NC1=NC2(CCCCC2)N(c2cccc(Cl)c2)C(N)=N1` cannot be ordered by IC50: > 100 µM for the first, > 100 µM for the second.

`Cc1nc(N)nc(Nc2cccc(Cl)c2)n1` and `Cc1nc(N)nc(Nc2cccc(Br)c2)n1` cannot be ordered by IC50: > 100 µM for the first, > 100 µM for the second.

`Nc1nc(CCl)nc(Nc2cccc(Br)c2)n1` and `Nc1nc(CCl)nc(Nc2cccc([N+](=O)[O-])c2)n1` cannot be ordered by IC50: > 100 µM for the first, > 100 µM for the second.

`COc1ccc(N2C(N)=NC(N)=NC23CCCCC3)cc1` and `COc1cccc(N2C(N)=NC(N)=NC23CCCCC3)c1` cannot be ordered by IC50: > 100 µM for the first, > 100 µM for the second.

`CC1(C)N=C(N)N=C(Nc2cccc(Br)c2)N1` and `CC1(C)N=C(N)N=C(Nc2cccc(Cl)c2)N1` cannot be ordered by IC50: > 100 µM for the first, > 100 µM for the second.

`CC1(C)N=C(N)N=C(Nc2ccccc2)N1` and `CC1(C)N=C(N)N=C(Nc2ccccc2Br)N1` cannot be ordered by IC50: > 100 µM for the first, > 100 µM for the second.

`O=C1NC(=O)C(c2ccccc2)(c2ccccc2)N1` [PHENYTOIN] and `CC1(C)N=C(N)N=C(Nc2ccccc2Cl)N1` cannot be ordered by IC50: > 100 µM for the first, > 100 µM for the second.

`COc1ccccc1NC1=NC(N)=NC(C)(C)N1` and `Cc1ccccc1NC1=NC(N)=NC(C)(C)N1` cannot be ordered by IC50: > 100 µM for the first, > 100 µM for the second.

Compared with `CC1(C)N=C(N)N=C(N)N1Cc1ccc(Cl)c(Cl)c1`, `COc1ccc(CN2C(N)=NC(N)=NC2(C)C)cc1` is 4.6-fold higher in IC50: 12.8 µM for the first, 58.8 µM for the second. The first is the more potent here.

`Nc1nc(CCl)nc(Nc2ccc(Cl)c(Cl)c2)n1` and `Cc1nc(N)nc(Nc2ccc(Cl)c(Cl)c2)n1` cannot be ordered by IC50: > 100 µM for the first, > 100 µM for the second.

Compared with `CC1(C)N=C(N)N=C(N)N1Cc1ccccc1`, `NC1=NC2(CCCCC2)N(c2ccccc2)C(N)=N1` is higher in IC50: 19.5 µM for the first, > 100 µM for the second. The first is the more potent here.

`COc1ccc(NC2=NC(N)=NC(C)(C)N2)cc1` and `Cc1ccc(NC2=NC(N)=NC(C)(C)N2)cc1` cannot be ordered by IC50: > 100 µM for the first, > 100 µM for the second.

With `COc1ccccc1N1C(N)=NC(N)=NC12CCCCC2` the IC50 was > 100 µM.
